Source: patent US9884125B2, “Glucose-responsive insulin conjugates” (Merck Sharp & Dohme Corp., priority 2013, dated 2018)

Target: T1, Human macrophage mannose receptor 1 (MRC1) (Homo sapiens, UniProt P22897)
T1 sequence (P22897 19-1456): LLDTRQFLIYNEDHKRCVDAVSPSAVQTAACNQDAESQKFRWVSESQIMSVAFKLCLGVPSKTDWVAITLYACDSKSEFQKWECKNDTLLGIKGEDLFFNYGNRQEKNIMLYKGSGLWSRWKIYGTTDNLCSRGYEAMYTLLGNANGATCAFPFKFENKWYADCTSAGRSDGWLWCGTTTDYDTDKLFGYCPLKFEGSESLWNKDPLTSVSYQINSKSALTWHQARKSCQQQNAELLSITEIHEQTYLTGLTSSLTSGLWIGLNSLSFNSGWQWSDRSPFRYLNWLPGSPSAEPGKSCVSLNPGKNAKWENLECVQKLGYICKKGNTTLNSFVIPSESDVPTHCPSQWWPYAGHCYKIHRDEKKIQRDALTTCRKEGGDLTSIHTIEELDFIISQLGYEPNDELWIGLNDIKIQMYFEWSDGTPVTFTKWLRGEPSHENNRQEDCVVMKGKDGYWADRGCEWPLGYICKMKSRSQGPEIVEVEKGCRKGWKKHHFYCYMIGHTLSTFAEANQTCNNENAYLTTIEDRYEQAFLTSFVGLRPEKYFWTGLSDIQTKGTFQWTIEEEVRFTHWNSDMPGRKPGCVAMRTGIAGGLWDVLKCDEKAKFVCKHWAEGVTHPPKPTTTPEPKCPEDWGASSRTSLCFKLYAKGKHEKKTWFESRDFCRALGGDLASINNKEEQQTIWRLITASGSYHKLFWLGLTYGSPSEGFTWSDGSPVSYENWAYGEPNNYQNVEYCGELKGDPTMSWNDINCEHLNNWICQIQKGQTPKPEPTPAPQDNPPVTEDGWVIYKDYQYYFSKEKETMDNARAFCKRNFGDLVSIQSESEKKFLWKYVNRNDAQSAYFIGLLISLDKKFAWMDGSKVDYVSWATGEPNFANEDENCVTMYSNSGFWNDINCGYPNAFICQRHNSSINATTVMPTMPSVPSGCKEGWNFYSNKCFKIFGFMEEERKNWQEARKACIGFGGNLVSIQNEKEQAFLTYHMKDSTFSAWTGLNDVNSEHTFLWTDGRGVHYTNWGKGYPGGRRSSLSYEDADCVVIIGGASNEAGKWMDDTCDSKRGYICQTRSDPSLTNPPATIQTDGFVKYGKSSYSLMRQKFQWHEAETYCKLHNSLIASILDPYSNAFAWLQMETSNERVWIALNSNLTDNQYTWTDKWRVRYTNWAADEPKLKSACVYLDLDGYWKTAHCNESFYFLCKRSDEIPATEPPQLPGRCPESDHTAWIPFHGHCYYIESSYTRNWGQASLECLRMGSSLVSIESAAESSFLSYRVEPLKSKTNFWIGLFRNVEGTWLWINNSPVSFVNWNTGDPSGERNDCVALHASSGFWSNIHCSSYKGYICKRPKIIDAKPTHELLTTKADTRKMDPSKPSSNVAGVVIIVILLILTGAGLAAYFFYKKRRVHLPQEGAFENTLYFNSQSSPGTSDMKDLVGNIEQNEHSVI
Assay: MRC1 competition binding assay (Eu-mannosylated-BSA), Method F: 96-well, manual liquid dispense
Details: read-out: MRC1 Binding IP (inflection point, corresponds to IC50)
Description: The competition binding assay for MRC1 utilized a ligand, mannosylated-BSA labeled with the DELFIA Eu-N1-ITC reagent, as reported in the literature. […] The antibody was incubated in the plate for 1 hr at room temperature with shaking. The plate was washed with wash buffer 3-5 times followed by addition of MRC1 (2 ng/μl final concentration) in 25 μl PBS containing 1% stabilizer BSA. The plate was incubated at room temperature with gentle shaking for 1 hr. The plate was washed three times with wash buffer. […]
Their in vitro biological activities towards insulin receptor (IR) were measured by either ligand competition assays or functional phosphorylation assays, as described above, labeled as following: Method A: IR phosphorylation assay based on 96-well with manual liquid dispense; Method B: IR phosphorylation assay based on 96-well with automated liquid dispense; Method C: IR phosphorylation assay based on 384-well with automated liquid dispense; Method D: IR binding assay method D; Method E: IR binding assay method E; Method F: MRC1 assay was performed in a 96-well plate with a manual liquid dispense; Method G: MRC1 assay was performed in a 96-well plate with an automated liquid dispense; Method H: MRC1 assay was performed in a 384-well plate with an automated dispense.

`CC[C@H](C)[C@H](NC(=O)CNC(=O)CCCCC(=O)N(CC(=O)NCCO[C@@H]1O[C@@H](C)[C@@H](O)[C@@H](O)[C@@H]1O)CC(=O)NCCO[C@@H]1O[C@@H](C)[C@@H](O)[C@@H](O)[C@@H]1O)C(=O)N[C@H](C(=O)N[C@@H](CCC(=O)O)C(=O)N[C@@H](CCC(N)=O)C(=O)N[C@H]1CSSC[C@@H]2NC(=O)[C@H]([C@@H](C)CC)NC(=O)[C@H](CO)NC(=O)[C@H]([C@@H](C)O)NC(=O)[C@H](CSSC[C@H](NC(=O)[C@H](CC(C)C)NC(=O)[C@H](Cc3c[nH]cn3)NC(=O)[C@H](CCC(N)=O)NC(=O)[C@H](CC(N)=O)NC(=O)[C@@H](NC(=O)[C@@H](N)Cc3ccccc3)C(C)C)C(=O)NCC(=O)N[C@@H](CO)C(=O)N[C@@H](Cc3c[nH]cn3)C(=O)N[C@@H](CC(C)C)C(=O)N[C@@H](C(C)C)C(=O)N[C@@H](CCC(=O)O)C(=O)N[C@@H](C)C(=O)N[C@@H](CC(C)C)C(=O)N[C@@H](Cc3ccc(O)cc3)C(=O)N[C@@H](CC(C)C)C(=O)N[C@@H](C(C)C)C(=O)N[C@H](C(=O)NCC(=O)N[C@@H](CCC(=O)O)C(=O)N[C@@H](CCCNC(=N)N)C(=O)NCC(=O)N[C@@H](Cc3ccccc3)C(=O)N[C@@H](Cc3ccccc3)C(=O)N[C@@H](Cc3ccc(O)cc3)C(=O)N[C@H](C(=O)N3CCC[C@H]3C(=O)N[C@@H](CCCCN)C(=O)N[C@H](C(=O)O)[C@@H](C)O)[C@@H](C)O)CSSC[C@@H](C(=O)N[C@@H](CC(N)=O)C(=O)O)NC(=O)[C@H](Cc3ccc(O)cc3)NC(=O)[C@H](CC(N)=O)NC(=O)[C@H](CCC(=O)O)NC(=O)[C@H](CC(C)C)NC(=O)[C@H](CCC(N)=O)NC(=O)[C@H](Cc3ccc(O)cc3)NC(=O)[C@H](CC(C)C)NC(=O)[C@H](CO)NC2=O)NC1=O)C(C)C` [IOC-13] showed an IC50 of 107 nM.
Molecule `CC[C@H](C)[C@H](NC(=O)CN)C(=O)N[C@H](C(=O)N[C@@H](CCC(=O)O)C(=O)N[C@@H](CCC(N)=O)C(=O)N[C@H]1CSSC[C@@H]2NC(=O)[C@H]([C@@H](C)CC)NC(=O)[C@H](CO)NC(=O)[C@H]([C@@H](C)O)NC(=O)[C@H](CSSC[C@H](NC(=O)[C@H](CC(C)C)NC(=O)[C@H](Cc3c[nH]cn3)NC(=O)[C@H](CCC(N)=O)NC(=O)[C@H](CC(N)=O)NC(=O)[C@@H](NC(=O)[C@@H](N)Cc3ccccc3)C(C)C)C(=O)NCC(=O)N[C@@H](CO)C(=O)N[C@@H](Cc3c[nH]cn3)C(=O)N[C@@H](CC(C)C)C(=O)N[C@@H](C(C)C)C(=O)N[C@@H](CCC(=O)O)C(=O)N[C@@H](C)C(=O)N[C@@H](CC(C)C)C(=O)N[C@@H](Cc3ccc(O)cc3)C(=O)N[C@@H](CC(C)C)C(=O)N[C@@H](C(C)C)C(=O)N[C@H](C(=O)NCC(=O)N[C@@H](CCC(=O)O)C(=O)N[C@@H](CCCNC(=N)N)C(=O)NCC(=O)N[C@@H](Cc3ccccc3)C(=O)N[C@@H](Cc3ccccc3)C(=O)N[C@@H](Cc3ccc(O)cc3)C(=O)N[C@H](C(=O)N3CCC[C@H]3C(=O)N[C@@H](CCCCNC(=O)CCCCC(=O)N(CC(=O)NCCO[C@@H]3O[C@@H](C)[C@@H](O)[C@@H](O)[C@@H]3O)CC(=O)NCCO[C@@H]3O[C@@H](C)[C@@H](O)[C@@H](O)[C@@H]3O)C(=O)N[C@H](C(=O)O)[C@@H](C)O)[C@@H](C)O)CSSC[C@@H](C(=O)N[C@@H](CC(N)=O)C(=O)O)NC(=O)[C@H](Cc3ccc(O)cc3)NC(=O)[C@H](CC(N)=O)NC(=O)[C@H](CCC(=O)O)NC(=O)[C@H](CC(C)C)NC(=O)[C@H](CCC(N)=O)NC(=O)[C@H](Cc3ccc(O)cc3)NC(=O)[C@H](CC(C)C)NC(=O)[C@H](CO)NC2=O)NC1=O)C(C)C` [IOC-12] has an IC50 of 92.5 nM.
